Measured values taken from patent US20250114374A1, “BCL-2 INHIBITORS” (Newave Pharmaceutical Inc., priority 2021, published 2025).
Where a name gives a salt, the structure may show the parent alone. Read-outs that look alike come from different tables or passages of the source.

System: RS4; 11 with G101V mutation
Assay: In vitro anti-proliferation assay (ATPlite luminescence) in BCL-2-dependent ALL cell line RS4;11 with G101V mutation
Format: cell-based
Settings: read-out: RS411-G101V IC50
How it was run: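 RS4;11 G101V cells at about 1×10^4 per well were exposed to a range of compound concentrations for about 72 h in medium with 10% FBS. Cellular ATP was measured by ATPlite luminescence after lysis, and IC50 was derived from the dose-response.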

[1] = cellular anti-proliferative IC50, about 72 hours, medium with 10% FBS, ATPlite

Row | Compound | IC50 [1] | further results
1 | COc1cc(CN2CCN(C3CC4(CCN(c5ccc(C(=O)NS(=O)(=O)c6ccc(NCC7CCC(C)(O)CC7)c([N+](=O)[O-])c6)c(N6c7cc8cc[nH]c8nc7O[C@H]7COCC[C@@H]76)c5)CC4)C3)[C@@H](c3ccccc3OC(C)C)C2)cnc1C1CC1 (stereo partly drawn) [Example 134, 4-{2-[(2S)-4-[(6-cyclopropyl-5-methoxypyridin-3-yl)methyl]-2-(2-isopropoxyphenyl)piperazin-1-yl]-7-azaspiro[3.5]nonan-7-yl}-2-[(3R,8S)-2,5-dioxa-9,15,17-triazatetracyclo[8.7.0.0^{3,8}.0^{12,16}]heptadeca-1(10),11,13,16-tetraen-9-yl]-N-[3-nitro-4-({[(1r,4r)-4-hydroxy-4-methylcyclohexyl]methyl}amino)benzenesulfonyl]benzamide] | 18.8 nM | –
2 | COc1ccc(CN2CCN(C3CC4(CCN(c5ccc(C(=O)NS(=O)(=O)c6ccc(NC[C@H]7CC[C@](C)(O)CC7)c([N+](=O)[O-])c6)c(N6c7cc8cc[nH]c8nc7O[C@H]7COCC[C@@H]76)c5)CC4)C3)[C@@H](c3ccccc3OC(C)C)C2)nc1OC [Example 105, 4-{2-[(2S)-4-[(5,6-dimethoxypyridin-2-yl)methyl]-2-(2-isopropoxyphenyl)piperazin-1-yl]-7-azaspiro[3.5]nonan-7-yl}-2-[(3R,8S)-2,5-dioxa-9,15,17-triazatetracyclo[8.7.0.0^{3,8}.0^{12,16}]heptadeca-1(10),11,13,16-tetraen-9-yl]-N-[3-nitro-4-({[(1r,4r)-4-hydroxy-4-methylcyclohexyl]methyl}amino)benzenesulfonyl]benzamide] | 19.3 nM | –
3 | COc1cc([C@@H](C)N2CCN(C3CC4(CCN(c5ccc(C(=O)NS(=O)(=O)c6cc7c(c([N+](=O)[O-])c6)N[C@H](C6CCOCC6)CO7)c(N6c7cc8cc[nH]c8nc7O[C@H]7COCC[C@@H]76)c5)CC4)C3)[C@H](c3ccccc3C)C2)cnc1N1CCOC[C@@H]1C [Example 194, 4-(2-((R)-4-((R)-1-(5-methoxy-6-((S)-3-methylmorpholino)pyridin-3-yl)ethyl)-2-(o-tolyl)piperazin-1-yl)-7-azaspiro[3.5]nonan-7-yl)-N-(((R)-5-nitro-3-(tetrahydro-2H-pyran-4-yl)-3,4-dihydro-2H-benzo[b][1,4]oxazin-7-yl)sulfonyl)-2-((5aS,9aR)-6,7,9,9a-tetrahydro-1H-pyrano[3,4-b]pyrrolo[3′,2′:5,6]pyrido[3,2-e][1,4]oxazin-5(5aH)-yl)benzamide] | – | IC50 (Homo sapiens, RS4-11, 72 h): 2.53 nM
4 | Cc1ccccc1[C@@H]1CN(CC2CCOCC2)CCN1C1CC2(CCN(c3ccc(C(=O)NS(=O)(=O)c4ccc(NC[C@H]5CC[C@](C)(O)CC5)c([N+](=O)[O-])c4)c(N4c5cc6cc[nH]c6nc5O[C@H]5COCC[C@@H]54)c3)CC2)C1 [Example 156, 2-[(3R,8S)-2,5-dioxa-9,15,17-triazatetracyclo[8.7.0.0^{3,8}.0^{12,16}]heptadeca-1(10),11,13,16-tetraen-9-yl]-4-{2-[(2R)-2-(2-methylphenyl)-4-(oxan-4-ylmethyl)piperazin-1-yl]-7-azaspiro[3.5]nonan-7-yl}-N-[3-nitro-4-({[(1r,4r)-4-hydroxy-4-methylcyclohexyl]methyl}amino)benzenesulfonyl]benzamide] | 12.2 nM | –
5 | COc1cc(CN2CCN(C3CC4(CCN(c5ccc(C(=O)NS(=O)(=O)c6ccc(NCC7CCC(C)(O)CC7)c([N+](=O)[O-])c6)c(N6c7cc8c(F)c[nH]c8nc7O[C@H]7COCC[C@@H]76)c5)CC4)C3)[C@@H](c3ccccc3OC(C)C)C2)cnc1N1CCOCC1 (stereo partly drawn) [Example 122, 2-[(3R,8S)-13-fluoro-2,5-dioxa-9,15,17-triazatetracyclo[8.7.0.0^{3,8}.0^{12,16}]heptadeca-1(10),11,13,16-tetraen-9-yl]-4-{2-[(2S)-2-(2-isopropoxyphenyl)-4-{[5-methoxy-6-(morpholin-4-yl)pyridin-3-yl]methyl}piperazin-1-yl]-7-azaspiro[3.5]nonan-7-yl}-N-[3-nitro-4-({[(1r,4r)-4-hydroxy-4-methylcyclohexyl]methyl}amino)benzenesulfonyl]benzamide] | 10 nM | –
6 | Cc1ccccc1[C@@H]1CN(C2CCC(C)(O)CC2)CCN1C1CC2(CCN(c3ccc(C(=O)NS(=O)(=O)c4ccc(NCC5CCC(C)(O)CC5)c([N+](=O)[O-])c4)c(N4c5cc6cc[nH]c6nc5O[C@H]5COCC[C@@H]54)c3)CC2)C1 (stereo partly drawn) [Example 113, 2-[(3R,8S)-2,5-dioxa-9,15,17-triazatetracyclo[8.7.0.0^{3,8}.0^{12,16}]heptadeca-1(10),11,13,16-tetraen-9-yl]-4-{2-[(2R)-2-(2-methylphenyl)-4-[(1s,4s)-4-hydroxy-4-methylcyclohexyl]piperazin-1-yl]-7-azaspiro[3.5]nonan-7-yl}-N-[3-nitro-4-({[(1r,4r)-4-hydroxy-4-methylcyclohexyl]methyl}amino)benzenesulfonyl]benzamide hydrochloride] | – | IC50 (cellular anti-proliferative IC50, about 72 hours, medium with 10% FBS, ATPlite, hydrochloride): 8.2 nM
7 | COc1cc(CN2CCN(C3CC4(CCN(c5ccc(C(=O)NS(=O)(=O)c6ccc(NCC7CCC(C)(O)CC7)c([N+](=O)[O-])c6)c(N6c7cc8cc[nH]c8nc7O[C@H]7COCC[C@@H]76)c5)CC4)C3)[C@H](c3ccccc3C)C2)cnc1OC (stereo partly drawn) [Example 118, 4-{2-[(2R)-4-[(5,6-dimethoxypyridin-3-yl)methyl]-2-(2-methylphenyl)piperazin-1-yl]-7-azaspiro[3.5]nonan-7-yl}-2-[(3R,8S)-2,5-dioxa-9,15,17-triazatetracyclo[8.7.0.0^{3,8}.0^{12,16}]heptadeca-1(10),11,13,16-tetraen-9-yl]-N-[3-nitro-4-({[(1r,4r)-4-hydroxy-4-methylcyclohexyl]methyl}amino)benzenesulfonyl]benzamide] | 4.4 nM | –
8 | CC(C)Oc1ccccc1[C@@H]1CN([C@@H]2COCc3c2ccc(F)c3F)CCN1C1CC2(CCN(c3ccc(C(=O)NS(=O)(=O)c4cc5c(c([N+](=O)[O-])c4)N[C@H](C4CCOCC4)CO5)c(N4c5cc6cc[nH]c6nc5O[C@H]5COCC[C@@H]54)c3)CC2)C1 [Example 248, 4-{2-[(2R)-4-[(4S)-7,8-difluoro-3,4-dihydro-1H-2-benzopyran-4-yl]-2-(2-isopropoxyphenyl)piperazin-1-yl]-7-azaspiro[3.5]nonan-7-yl}-2-[(3R,8S)-2,5-dioxa-9,15,17-triazatetracyclo[8.7.0.0^{3,8}.0^{12,16}]heptadeca-1(10),11,13,16-tetraen-9-yl]-N-[(3R)-5-nitro-3-(oxan-4-yl)-3,4-dihydro-2H-1,4-benzoxazin-7-ylsulfonyl]benzamide] | 9.68 nM | –
9 | CC(C)Oc1ccccc1[C@H]1CN(Cc2ccc(N3CCOC[C@H]3C)c(F)c2)CCN1C1CC2(CCN(c3ccc(C(=O)NS(=O)(=O)c4ccc(NCC5CCC(C)(O)CC5)c([N+](=O)[O-])c4)c(N4c5cc6cc[nH]c6nc5O[C@H]5COCC[C@@H]54)c3)CC2)C1 (stereo partly drawn) [Example 153, 2-[(3R,8S)-2,5-dioxa-9,15,17-triazatetracyclo[8.7.0.0^{3,8}.0^{12,16}]heptadeca-1(10),11,13,16-tetraen-9-yl]-4-{2-[(2S)-4-({3-fluoro-4-[(3R)-3-methylmorpholin-4-yl]phenyl}methyl)-2-(2-isopropoxyphenyl)piperazin-1-yl]-7-azaspiro[3.5]nonan-7-yl}-N-[3-nitro-4-({[(1r,4r)-4-hydroxy-4-methylcyclohexyl]methyl}amino)benzenesulfonyl]benzamide] | 47.1 nM | –
10 | Cc1ccccc1[C@@H]1CN(Cc2cnc(N3CCOCC3)c(OC(C)C)c2)CCN1C1CC2(CCN(c3ccc(C(=O)NS(=O)(=O)c4ccc(NCC5CCC(C)(O)CC5)c([N+](=O)[O-])c4)c(N4c5cc6cc[nH]c6nc5O[C@H]5COCC[C@@H]54)c3)CC2)C1 (stereo partly drawn) [Example 145, 2-[(3R,8S)-2,5-dioxa-9,15,17-triazatetracyclo[8.7.0.0^{3,8}.0^{12,16}]heptadeca-1(10),11,13,16-tetraen-9-yl]-4-{2-[(2R)-4-{[5-isopropoxy-6-(morpholin-4-yl)pyridin-3-yl]methyl}-2-(2-methylphenyl)piperazin-1-yl]-7-azaspiro[3.5]nonan-7-yl}-N-[3-nitro-4-({[(1r,4r)-4-hydroxy-4-methylcyclohexyl]methyl}amino)benzenesulfonyl]benzamide] | 6.1 nM | –
11 | COc1ccc(CN2CCN(C3CC4(CCN(c5ccc(C(=O)NS(=O)(=O)c6ccc(NCC7CCC(C)(O)CC7)c([N+](=O)[O-])c6)c(N6c7cc8cc[nH]c8nc7O[C@H]7COCC[C@@H]76)c5)CC4)C3)[C@@H](c3ccccc3OC(C)C)C2)nc1 (stereo partly drawn) [Example 103, 2-[(3R,8S)-2,5-dioxa-9,15,17-triazatetracyclo[8.7.0.0^{3,8}.0^{12,16}]heptadeca-1(10),11,13,16-tetraen-9-yl]-4-{2-[(2S)-2-(2-isopropoxyphenyl)-4-[(5-methoxypyridin-2-yl)methyl]piperazin-1-yl]-7-azaspiro[3.5]nonan-7-yl}-N-[3-nitro-4-({[(1r,4r)-4-hydroxy-4-methylcyclohexyl]methyl}amino)benzenesulfonyl]benzamide] | 35.1 nM | –
12 | CC(C)Oc1ccccc1[C@@H]1CN(S(=O)(=O)c2ccc(F)c(F)c2)CCN1C1CC2(CCN(c3ccc(C(=O)NS(=O)(=O)c4cc5c(c([N+](=O)[O-])c4)N[C@H](C4CCOCC4)CO5)c(N4c5cc6cc[nH]c6nc5O[C@H]5COCC[C@@H]54)c3)CC2)C1 [Example 245, 4-(2-((R)-4-((3,4-difluorophenyl)sulfonyl)-2-(2-isopropoxyphenyl)piperazin-1-yl)-7-azaspiro[3.5]nonan-7-yl)-N-(((R)-5-nitro-3-(tetrahydro-2H-pyran-4-yl)-3,4-dihydro-2H-benzo[b][1,4]oxazin-7-yl)sulfonyl)-2-((5aS,9aR)-6,7,9,9a-tetrahydro-1H-pyrano[3,4-b]pyrrolo[3′,2′:5,6]pyrido[3,2-e][1,4]oxazin-5(5aH)-yl)benzamide] | – | IC50 (Homo sapiens, RS4-11, 72 h): 290 nM
